Measurements reported in the NIST ThermoML archive (doi:10.1016/j.fluid.2005.11.026).
Several values for one entry are separate records, joined by “and”; a condition that tells them apart may be missing. Identical values can stand only once. ± gives the expanded uncertainty stated by the source.

Details: 313.15 K; Liquid; Closed cell (Static) method

SMILES | vapor or sublimation pressure
C1CCCCC1 [cyclohexane] | 24.62 ± 0.096 kPa
Cc1ccccc1 [toluene] | 7.881 ± 0.041 kPa and 7.888 ± 0.041 kPa and 7.889 ± 0.041 kPa
